Measurements from patent publication US20220249463A1, “METHODS OF ALTERING CARDIAC REMODELING USING COMPOUNDS THAT PROMOTE GLUCOSE OXIDATION” (IMBRIA PHARMACEUTICALS, INC., priority 2019, published 2022).
Values joined by “and” are separate entries in the source; they are usually repeats but may differ in a detail not shown here. Identical values can stand only once.

Key:
[1] = system: TAC mice; test: TAC mice, six weeks treatment: heart weight and heart weight/body weight; type: in vivo; details: 6 weeks; for cardiac mass: TMZ 6, CV-8814 7.5, CV-8972 10 mg/kg/day, osmotic minipump
[2] = system: Calcium Channel L-Type, Benzothiazepine; type: binding, rat; details: 10 μM CV-8814
[3] = system: Glutamate, NMDA, Polyamine; type: binding, rat; details: 10 μM CV-8814
[4] = system: Transporter, Adenosine; type: binding, guinea pig; details: 10 μM CV-8814
[5] = system: Glutamate, NMDA, Phencyclidine; type: binding, rat; details: 10 μM CV-8814
[6] = system: GABAA, Flunitrazepam, Central; type: binding, rat; details: 10 μM CV-8814
[7] = system: Protein Serine/Threonine Kinase, PKC, Non-selective; type: biochemical, rat; details: 10 μM CV-8814
[8] = system: GABAA, Chloride Channel, TBOB; type: binding, rat; details: 10 μM CV-8814
[9] = system: Glutamate, AMPA; type: binding, rat; details: 10 μM CV-8814
[10] = molecular target: Potassium Channel [KATP] (Cricetus cricetus, UniProt Q09427); type: binding, hamster; details: 10 μM CV-8814
Potassium Channel [KATP], sequence (Q09427 whole entry): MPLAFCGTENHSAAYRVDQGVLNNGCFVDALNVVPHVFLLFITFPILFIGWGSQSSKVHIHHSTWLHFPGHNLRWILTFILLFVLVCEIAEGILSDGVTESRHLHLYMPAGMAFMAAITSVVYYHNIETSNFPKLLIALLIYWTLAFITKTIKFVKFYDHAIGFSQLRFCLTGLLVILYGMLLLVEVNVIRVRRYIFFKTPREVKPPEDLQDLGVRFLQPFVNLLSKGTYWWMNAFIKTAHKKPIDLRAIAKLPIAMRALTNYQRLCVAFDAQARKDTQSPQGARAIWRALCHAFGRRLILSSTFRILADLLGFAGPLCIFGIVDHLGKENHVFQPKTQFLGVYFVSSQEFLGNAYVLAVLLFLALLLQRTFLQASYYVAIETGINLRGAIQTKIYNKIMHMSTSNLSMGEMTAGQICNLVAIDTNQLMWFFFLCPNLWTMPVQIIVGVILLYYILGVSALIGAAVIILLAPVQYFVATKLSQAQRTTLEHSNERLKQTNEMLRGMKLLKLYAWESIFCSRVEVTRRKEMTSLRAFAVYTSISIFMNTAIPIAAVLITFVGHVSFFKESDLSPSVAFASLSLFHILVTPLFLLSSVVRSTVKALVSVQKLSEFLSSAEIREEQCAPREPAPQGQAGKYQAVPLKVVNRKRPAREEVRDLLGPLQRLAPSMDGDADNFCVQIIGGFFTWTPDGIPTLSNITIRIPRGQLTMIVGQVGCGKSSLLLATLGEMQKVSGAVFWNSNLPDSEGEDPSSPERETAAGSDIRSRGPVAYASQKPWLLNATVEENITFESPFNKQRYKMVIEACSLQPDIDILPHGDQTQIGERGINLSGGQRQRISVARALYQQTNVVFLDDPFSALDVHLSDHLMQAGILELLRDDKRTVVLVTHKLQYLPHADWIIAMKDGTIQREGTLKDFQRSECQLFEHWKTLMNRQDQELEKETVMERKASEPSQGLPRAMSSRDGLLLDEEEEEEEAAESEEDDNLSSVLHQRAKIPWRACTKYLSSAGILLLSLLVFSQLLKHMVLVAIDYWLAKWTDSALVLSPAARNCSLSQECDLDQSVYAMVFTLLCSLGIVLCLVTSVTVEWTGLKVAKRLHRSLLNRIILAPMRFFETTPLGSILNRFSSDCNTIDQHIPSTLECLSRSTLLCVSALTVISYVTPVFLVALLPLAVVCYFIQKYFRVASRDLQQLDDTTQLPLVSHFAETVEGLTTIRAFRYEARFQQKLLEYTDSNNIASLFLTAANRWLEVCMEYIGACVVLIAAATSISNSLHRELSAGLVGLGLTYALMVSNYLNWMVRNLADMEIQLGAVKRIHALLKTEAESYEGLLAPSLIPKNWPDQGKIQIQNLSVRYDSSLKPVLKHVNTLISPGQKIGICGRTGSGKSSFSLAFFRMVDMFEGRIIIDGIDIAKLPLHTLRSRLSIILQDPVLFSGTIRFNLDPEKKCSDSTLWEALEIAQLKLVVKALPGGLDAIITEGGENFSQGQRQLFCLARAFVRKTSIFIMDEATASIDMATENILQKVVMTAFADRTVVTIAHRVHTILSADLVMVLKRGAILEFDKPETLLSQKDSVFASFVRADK

[11] = system: Phosphodiesterase PDE4; type: biochemical, human; details: 10 μM CV-8814
[12] = system: Calcium Channel L-Type, Phenylalkylamine; type: binding, rat; details: 10 μM CV-8814
[13] = system: ATPase, Na^+/K^+, pig heart; type: biochemical; details: 10 μM CV-8814
[14] = system: Glycine, Strychnine-Sensitive; type: binding, rat; details: 10 μM CV-8814
[15] = system: TAC mice; test: TAC mice: echocardiography; type: in vivo
[16] = system: Calcium Channel L-Type, Dihydropyridine; type: binding, rat; details: 10 μM CV-8814
[17] = system: Glutamate, Kainate; type: binding, rat; details: 10 μM CV-8814
[18] = system: GABAA, Ro-15-1788, Hippocampus; type: binding, rat; details: 10 μM CV-8814
[19] = system: Phosphodiesterase PDE3; type: biochemical, human; details: 10 μM CV-8814
[20] = system: Transporter, GABA; type: binding, rat; details: 10 μM CV-8814
[21] = system: Sodium Channel, Site 2; type: binding, rat; details: 10 μM CV-8814
[22] = system: Nicotinic Acetylcholine; type: binding, human; details: 10 μM CV-8814
[23] = system: Glutamate, NMDA, Agonism; type: binding, rat; details: 10 μM CV-8814
[24] = system: TAC mice; test: TAC mice: left ventricular pressure with Mikro-tip catheter; type: in vivo; details: end of 6-week treatment; for left ventricular developed pressure (LVDP): TMZ 6, NA 2.4, CV-8814 7.5, CV-8972 10 mg/kg/day
[25] = system: TAC mice; test: TAC mice: cardiac fibrosis, Masson's trichrome; type: in vivo; details: end of 6-week experiment
[26] = system: isolated hearts after ischemia-reperfusion; test: Ischemia-reperfusion (IR): infarct size by TTC staining; type: in vivo, mice
Method: FIG. 38 is a schematic of the ischemia-reperfusion (IR) method used to analyze the effects of selected compositions on coronary flow, cardiac function, and infarct size. […] At 20 minutes, ischemia was induced, and coronary flow was analyzed. At 50 minutes, reperfusion was initiated to restore blood flow. At 170 minutes, coronary flow and cardiac function was analyzed, and then the hearts were preserved, sectioned, and infarct size was measured by triphenyltetrazolium chloride (TTC) staining. […] FIG. 42 is graph of infarct size after IR.

[27] = system: isolated hearts after ischemia-reperfusion; test: Ischemia-reperfusion (IR): coronary flow; type: in vivo, mice; details: TMZ 20 μM, TNF 2 μM each, TNS 20 μM each, individual hearts, MEAN = group mean; for CF20: coronary flow at 20 minutes; for CF170: coronary flow at 170 minutes, after IR; for CF170/CF20: ratio of flow at 170 minutes to flow at 20 minutes
Method: FIG. 38 is a schematic of the ischemia-reperfusion (IR) method used to analyze the effects of selected compositions on coronary flow, cardiac function, and infarct size. […] At 20 minutes, ischemia was induced, and coronary flow was analyzed. At 50 minutes, reperfusion was initiated to restore blood flow. At 170 minutes, coronary flow and cardiac function was analyzed, and then the hearts were preserved, sectioned, and infarct size was measured by triphenyltetrazolium chloride (TTC) staining. FIG. 39 is a graph of coronary flow of after IR.

[28] = system: isolated hearts after ischemia-reperfusion; test: Ischemia-reperfusion (IR): cardiac function (left ventricular pressure); parameters: species or system mice; details: for left ventricular developed pressure (LVDP), Mean: Table 6 group mean; for HR / LVDP / LVDPxHR / LVEDP / LVESP: individual hearts, MEAN = group mean
Method: FIG. 38 is a schematic of the ischemia-reperfusion (IR) method used to analyze the effects of selected compositions on coronary flow, cardiac function, and infarct size. […] At 20 minutes, ischemia was induced, and coronary flow was analyzed. At 50 minutes, reperfusion was initiated to restore blood flow. At 170 minutes, coronary flow and cardiac function was analyzed, and then the hearts were preserved, sectioned, and infarct size was measured by triphenyltetrazolium chloride (TTC) staining. FIG. 40 is graph of left ventricular developed pressure (LVDP) after IR.

[29] = TMZ 6, NA 2.4, CV-8814 7.5, CV-8972 10 mg/kg/day
[30] = TMZ 20 μM, TNF 2 μM each, TNS 20 μM each

COc1ccc(CN2CCN(CCO)CC2)c(OC)c1OC [CV-8814, 2-(4-(2,3,4-trimethoxybenzyl)piperazin-1-yl)ethan-1-ol]
cardiac remodeling in TAC mice (in words) [1, 29]: effectively inhibited cardiac remodeling
cardiac mass ([1]; TAC mice): 227 ± 12 mg
heart weight to body weight ratio ([1]; TAC mice, TMZ 6, NA 2.4, CV-8814 7.5, CV-8972 10 mg/kg/day, subcutaneous osmotic minipump): 7.6 ± 0.4 mg/g
Inhibition [2]: < 50%
Inhibition [3]: < 50%
Inhibition [4]: < 50%
Inhibition [5]: < 50%
Inhibition [6]: < 50%
Inhibition [7]: < 50%
Inhibition [8]: < 50%
Inhibition [9]: < 50%
inhibition at 10 µM [10]: < 50%
Inhibition [11]: < 50%
Inhibition [12]: < 50%
Inhibition [13]: < 50%
Inhibition [14]: < 50%
EF (in words) ([15]; 3-weeks after TAC): significantly increased
IVRT ([15]; 3-weeks after TAC): 33 ± 1 ms
IVSd ([15]; 3-weeks after TAC): 1.27±0.02 mm
LV mass ([15]; 3-weeks after TAC): 152 ± 9 mg
left ventricular FS ([15]; 3-weeks after TAC, CV-8814 7.5, CV-8972 10 mg/kg/day): 46%±2%
IVRT ([15]; 6-weeks after TAC): 28 ± 2 ms
IVSd ([15]; 6-weeks after TAC): 1.26±0.04 mm
left ventricular FS ([15]; 6-weeks after TAC (end of the experiment)): 44%±3%
cardiac functions in TAC mice (in words) ([15]; conclusion, 6 weeks treatment): improved cardiac functions
EF (in words) ([15]; to the end of the study (6 weeks)): protective effect was sustained to the end of the study
Inhibition [16]: < 50%
Inhibition [17]: < 50%
Inhibition [18]: < 50%
Inhibition [19]: < 50%
Inhibition [20]: < 50%
Inhibition [21]: < 50%
Inhibition [22]: < 50%
Inhibition [23]: < 50%
+dp/dtm [24]: 4572±268 mm Hg/sec
left ventricular developed pressure (LVDP) [24]: 123±8 mm Hg

O=C(O)c1cccnc1 [NA, nicotinic acid, reference compound]
cardiac remodeling in TAC mice (in words) [1, 29]: no significant effect on cardiac remodeling
IVRT ([15]; 6-weeks after TAC): 29 ± 2 ms
IVSd (in words) ([15]; TAC mice, NA 2.4 mg/kg/day): decreased IVSd
LV mass (in words) ([15]; TAC mice, NA 2.4 mg/kg/day): no effect on LV mass
left ventricular developed pressure (LVDP) [24]: 141±20 mm Hg
cardiac fibrosis (fibrotic area to whole heart tissue area) [25]: 8.2±1%

COc1ccc(CN2CCNCC2)c(OC)c1OC [TMZ, trimetazidine]
cardiac remodeling in TAC mice (in words) [1, 29]: effectively inhibited cardiac remodeling
cardiac mass ([1]; TAC mice): 224 ± 12 mg
infarct size after IR (in words) [26, 30]: decreased infarct size
IS/LV ([26]; individual isolated hearts after ischemia-reperfusion): 58% and 49% (2×) and 44% and 71% and 64% and 68% and 60% and 43% and 51%
IS/LV Mean ([26]; mean of 10 hearts of the group): 56%
CF20 [27]: 2.13 mL/min and 1.7 mL/min and 2.18 mL/min and 3.83 mL/min and 1.72 mL/min and 2.4 mL/min and 2.14 mL/min and 2.03 mL/min
CF20 ([27]; mean): 2.27 mL/min
CF170 [27]: 0.0516 mL/min and 0.1 mL/min and 0.0778 mL/min and 0.129 mL/min and 0.0898 mL/min and 0.0656 mL/min and 0.0556 mL/min and 0.13 mL/min
CF170 ([27]; mean): 0.0874 mL/min
CF170/CF20 [27]: 2.42E+01 μl/ml and 5.87E+01 μl/ml and 3.57E+01 μl/ml and 3.37E+01 μl/ml and 5.21E+01 μl/ml and 2.73E+01 μl/ml and 2.60E+01 μl/ml and 6.39E+01 μl/ml
CF170/CF20 ([27]; mean): 4.02E+01 μl/ml
LV mass ([15]; 3-weeks after TAC): 153 ± 8 mg
IVRT ([15]; 6-weeks after TAC): 36 ± 1 ms
LV mass ([15]; 6-weeks after TAC): 176 ± 15 mg
left ventricular developed pressure (LVDP), Mean ([28]; T20 (20 minutes)): 55.86
left ventricular developed pressure (LVDP), Mean ([28]; T170 (170 minutes, after IR)): 48.91
cardiac function after IR (in words) [28, 30]: prevented a decline in cardiac function
HR ([28]; after 2h reperfusion): 1.18E+02 and 1.19E+02 and 1.01E+02 and 1.51E+02 and 6.70E+01 and 9.22E+01 and 2.22E+02 and 1.70E+02 and 1.16E+02 and 2.38E+02
LVDP ([28]; after 2h reperfusion): 2.14E+01 and 4.34E+01 and 5.22E+01 and 2.97E+01 and 4.84E+01 and 4.67E+01 and 4.10E+01 and 7.65E+01 and 5.53E+01 and 7.43E+01
LVDPxHR ([28]; after 2h reperfusion): 2.52E+03 and 5.15E+03 and 5.28E+03 and 4.49E+03 and 3.24E+03 and 4.31E+03 and 9.11E+03 and 1.30E+04 and 6.44E+03 and 1.77E+04
LVEDP ([28]; after 2h reperfusion): 2.93E+01 and 3.31E+01 and 3.96E+01 and 1.80E+01 and 3.36E+00 and 1.87E+00 and 1.99E+01 and 3.21E+01 and 1.84E+01 and 1.77E+00
LVESP ([28]; after 2h reperfusion): 5.07E+01 and 7.66E+01 and 9.19E+01 and 4.77E+01 and 5.18E+01 and 4.86E+01 and 6.09E+01 and 1.09E+02 and 7.38E+01 and 7.61E+01
HR ([28]; after 2h reperfusion, mean): 1.39E+02
LVDP ([28]; after 2h reperfusion, mean): 4.89E+01
LVDPxHR ([28]; after 2h reperfusion, mean): 6.82E+03
LVEDP ([28]; after 2h reperfusion, mean): 1.97E+01
LVESP ([28]; after 2h reperfusion, mean): 6.86E+01
LVESP ([28]; pre-ischemia, TMZ 20 μM, TNF 2 μM each, TNS 20 μM each): 7.58E+01 and 8.44E+01 and 7.15E+01 and 5.47E+01 and 6.87E+01 and 4.27E+01 and 3.30E+01 (2×) and 6.60E+01 and 7.38E+01
LVESP ([28]; pre-ischemia, TMZ 20 μM, TNF 2 μM each, TNS 20 μM each, mean): 6.03E+01
HR ([28]; pre-ischemia): 2.63E+02 and 2.93E+02 and 1.66E+02 and 3.35E+02 and 3.58E+02 and 3.33E+02 and 3.48E+02 and 3.21E+02 and 2.67E+02 and 3.32E+02
LVDP ([28]; pre-ischemia): 6.93E+01 and 7.90E+01 and 6.48E+01 and 5.30E+01 and 6.51E+01 and 3.80E+01 and 2.82E+01 and 3.15E+01 and 5.87E+01 and 7.11E+01
LVDPxHR ([28]; pre-ischemia): 1.83E+04 and 2.31E+04 and 1.08E+04 and 1.77E+04 and 2.33E+04 and 1.26E+04 and 9.82E+03 and 1.01E+04 and 1.57E+04 and 2.36E+04
LVEDP ([28]; pre-ischemia): 6.53E+00 and 5.43E+00 and 6.76E+00 and 1.74E+00 and 3.58E+00 and 4.71E+00 and 4.77E+00 and 1.46E+00 and 7.25E+00 and 2.70E+00
HR ([28]; pre-ischemia, mean): 3.02E+02
LVDP ([28]; pre-ischemia, mean): 5.59E+01
LVDPxHR ([28]; pre-ischemia, mean): 1.68E+04
LVEDP ([28]; pre-ischemia, mean): 4.49E+00
+dp/dtm [24]: 5157±615 mm Hg/sec
left ventricular developed pressure (LVDP) [24]: 137±10 mm Hg
cardiac fibrosis (fibrotic area to whole heart tissue area) [25]: 7.6±1%
